# Results: PubChem BioAssay (NCI)
#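 Cultured in 96-well plates, cells were exposed to test compound for 48 hours across five concentrations. GI50 marks 50% less growth. TGI is the concentration that stops growth completely.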
# Tests used:
# Test in all cases: NCI anticancer screen, dose series, 48 h
# [1] = system: MDA-MB-231 breast
# [2] = system: TK-10 renal
# [3] = system: MOLT-4 leukemia
# [4] = system: OVCAR-5 ovarian
# [5] = system: SK-MEL-2 melanoma
# [6] = system: SR leukemia
# [7] = system: SK-OV-3 ovarian
# [8] = system: M14 melanoma
# [9] = system: OVCAR-8 ovarian
# [10] = system: RPMI-8226 leukemia
# [11] = system: UO-31 renal
# [12] = system: NCI/ADR-RES ovarian
# [13] = system: CAKI-1 renal
# [14] = system: HCT-116 colon
# [15] = system: 786-0 renal
# [16] = system: ACHN renal
# [17] = system: UACC-62 melanoma
# [18] = system: HS 578T breast
# [19] = system: COLO 205 colon
# [20] = system: MDA-MB-435
# [21] = system: HCC-2998 colon
# [22] = system: BT-549 breast
# [23] = system: DU-145 prostate
# [24] = system: CCRF-CEM leukemia
# [25] = system: HL-60(TB) leukemia
# [26] = system: A498 renal
# [27] = system: UACC-257 melanoma
# [28] = system: HCT-15 colon
# [29] = system: U251 CNS
# [30] = system: SW-620 colon
# [31] = system: OVCAR-4 ovarian
# [32] = system: MCF7 breast
# [33] = system: KM12 colon
# [34] = system: SNB-19 CNS
# [35] = system: SK-MEL-28 melanoma
# [36] = system: LOX IMVI melanoma
# [37] = system: IGROV1 ovarian
# [38] = system: A549 NSCLC
# [39] = system: SF-268 CNS
# [40] = system: HT29 colon
# [41] = system: SNB-75 CNS
# [42] = system: HOP-62 NSCLC
# [43] = system: MALME-3M melanoma
# [44] = system: SK-MEL-5 melanoma
# [45] = system: K-562 leukemia
# [46] = system: RXF 393 renal
# [47] = system: OVCAR-3 ovarian
# [48] = system: EKVX NSCLC
# [49] = system: NCI-H23 lung
# [50] = system: SN12C renal
# [51] = system: SF-295 CNS
# [52] = system: SF-539 CNS
# [53] = system: NCI-H460 lung
# [54] = system: T-47D breast
# [55] = system: NCI-H522 lung
structure (smiles),measurement,setting,value
COc1cc(C(=O)OCCCCCCCCCCC[P+](c2ccccc2)(c2ccccc2)c2ccccc2)ccc1O,GI50,[1],301 nM
same,TGI,[1],1160 nM
same,GI50,[2],1650 nM
same,TGI,[2],4150 nM
same,GI50,[3],557 nM
same,TGI,[3],4310 nM
same,GI50,[4],1590 nM
same,TGI,[4],3250 nM
same,GI50,[5],522 nM
same,TGI,[5],1880 nM
same,GI50,[6],364 nM
same,TGI,[6],2310 nM
same,GI50,[7],1350 nM
same,TGI,[7],5500 nM
same,GI50,[8],349 nM
same,TGI,[8],1450 nM
same,GI50,[9],345 nM
same,TGI,[9],1530 nM
same,GI50,[10],200 nM
same,TGI,[10],942 nM
same,GI50,[11],1690 nM
same,TGI,[11],3170 nM
same,GI50,[12],2430 nM
same,TGI,[12],6520 nM
same,GI50,[13],1640 nM
same,TGI,[13],3180 nM
same,GI50,[14],273 nM
same,TGI,[14],1090 nM
same,GI50,[15],1060 nM
same,TGI,[15],2380 nM
same,GI50,[16],1460 nM
same,TGI,[16],2990 nM
same,GI50,[17],768 nM
same,TGI,[17],2440 nM
same,GI50,[18],549 nM
same,TGI,[18],5250 nM
same,GI50,[19],1490 nM
same,TGI,[19],3060 nM
same,GI50,[20],312 nM
same,TGI,[20],1240 nM
same,GI50,[21],570 nM
same,TGI,[21],1920 nM
same,GI50,[22],271 nM
same,TGI,[22],1260 nM
same,GI50,[23],460 nM
same,TGI,[23],1580 nM
same,GI50,[24],434 nM
same,TGI,[24],2520 nM
same,GI50,[25],282 nM
same,TGI,[25],734 nM
same,GI50,[26],1840 nM
same,TGI,[26],5230 nM
same,GI50,[27],451 nM
same,TGI,[27],1540 nM
same,GI50,[28],1380 nM
same,TGI,[28],2970 nM
CC1=C([Se]CC(OC(=O)[C@@H](CSSC(C)(C)C)NC(=O)OC(C)(C)C)C(=O)NC(C)(C)C)C(=O)c2ccccc2C1=O (some centres not stated),GI50,[1],1450 nM
same,TGI,[1],2760 nM
same,GI50,[29],675 nM
same,TGI,[29],1940 nM
same,GI50,[2],1600 nM
same,TGI,[2],2950 nM
same,GI50,[30],1430 nM
same,TGI,[30],2730 nM
same,GI50,[31],1490 nM
same,TGI,[31],2870 nM
same,GI50,[32],1460 nM
same,TGI,[32],3120 nM
same,GI50,[4],1730 nM
same,TGI,[4],3240 nM
same,GI50,[33],1260 nM
same,TGI,[33],2510 nM
same,GI50,[5],1470 nM
same,TGI,[5],2880 nM
same,GI50,[7],1360 nM
same,TGI,[7],2640 nM
same,GI50,[8],1260 nM
same,TGI,[8],2580 nM
same,GI50,[9],1360 nM
same,TGI,[9],2730 nM
same,GI50,[34],451 nM
same,TGI,[34],1690 nM
same,GI50,[13],1660 nM
same,TGI,[13],3020 nM
same,GI50,[14],490 nM
same,TGI,[14],1700 nM
same,GI50,[15],1650 nM
same,TGI,[15],3010 nM
same,GI50,[16],1510 nM
same,TGI,[16],2840 nM
same,GI50,[35],1620 nM
same,TGI,[35],2980 nM
same,GI50,[36],1470 nM
same,TGI,[36],2790 nM
same,GI50,[37],1150 nM
same,TGI,[37],2360 nM
same,GI50,[38],1280 nM
same,TGI,[38],2660 nM
same,GI50,[17],1510 nM
same,TGI,[17],2840 nM
same,GI50,[39],1960 nM
same,TGI,[39],3390 nM
same,GI50,[40],2300 nM
same,TGI,[40],6300 nM
same,GI50,[41],1300 nM
same,TGI,[41],2590 nM
same,GI50,[42],762 nM
same,TGI,[42],2810 nM
same,GI50,[43],1180 nM
same,TGI,[43],2410 nM
same,GI50,[44],1590 nM
same,TGI,[44],2940 nM
same,GI50,[18],1310 nM
same,TGI,[18],2690 nM
same,GI50,[45],1280 nM
same,TGI,[45],2620 nM
same,GI50,[19],1670 nM
same,TGI,[19],3150 nM
same,GI50,[20],1640 nM
same,TGI,[20],3000 nM
same,GI50,[21],1540 nM
same,TGI,[21],3100 nM
same,GI50,[46],1500 nM
same,TGI,[46],2820 nM
same,GI50,[22],1240 nM
same,TGI,[22],2500 nM
same,GI50,[23],1810 nM
same,TGI,[23],3220 nM
same,GI50,[47],1890 nM
same,TGI,[47],3300 nM
same,GI50,[48],1510 nM
same,TGI,[48],3110 nM
same,GI50,[49],1820 nM
same,TGI,[49],4610 nM
same,GI50,[50],1370 nM
same,TGI,[50],2740 nM
same,GI50,[25],255 nM
same,TGI,[25],1230 nM
same,GI50,[26],1420 nM
same,TGI,[26],3830 nM
same,GI50,[51],1220 nM
same,TGI,[51],3190 nM
same,GI50,[52],1430 nM
same,TGI,[52],2740 nM
same,GI50,[53],364 nM
same,TGI,[53],1320 nM
same,GI50,[28],1660 nM
same,TGI,[28],3120 nM
same,GI50,[54],1440 nM
same,TGI,[54],3480 nM
same,GI50,[55],1550 nM
same,TGI,[55],2990 nM
